pIC50: −log10 of the molar value. Where a SMILES comes first, the peptide text is derived from it. Bridges are numbered along the chain shown (N, C = ends). [ ]: non-standard residue; d: D form. The star is where a group is joined. ξ: configuration not given here. Ala(4-isoquinolinyl) = N[C@@H](Cc1cncc2ccccc12)C(=O)O; Phe(4-COOH) = N[C@@H](Cc1ccc(C(=O)O)cc1)C(=O)O; Bip = N[C@@H](Cc1ccc(-c2ccccc2)cc1)C(=O)O; Phe(3-Me) = Cc1cccc(C[C@H](N)C(=O)O)c1; Phe(4-Me) = Cc1ccc(C[C@H](N)C(=O)O)cc1; Val(3-OH) = CC(C)(O)[C@H](N)C(=O)O; 4Pal = N[C@@H](Cc1ccncc1)C(=O)O; Cha = N[C@@H](CC1CCCCC1)C(=O)O; Cit = NC(=O)NCCC[C@H](N)C(=O)O; Ile(3ξ) = CCC(C)[C@H](N)C(=O)O; Thr(3ξ) = CC(O)[C@H](N)C(=O)O; Carboxymethyl = O=C(O)C*; Orn = NCCC[C@H](N)C(=O)O; Pra = C#CC[C@H](N)C(=O)O; Dab = NCC[C@H](N)C(=O)O; Dap = NC[C@H](N)C(=O)O; Ac3c = NC1(C(=O)O)CC1

As a reminder, the pIC50 is −log10 of the IC50, conventionally taken in molar units.

The assay deals with T1, human PD-1 / PD-L1-Ig binding on Jurkat cell line over-expressing human PD-1 (Jurkat-PD-1) (Homo sapiens, UniProt Q15116).
T1 construct: expressed in transfected cells; host or cells: Jurkat
Briefly: Jurkat-PD-1 Cell Binding High-Content Screening Assay (CBA). The following applies: Jurkat-PD-1 cells, PE-labeled PD-L1-Ig 20 nM final; read-out: Jurkat HPD1_PDL1 IC50. Type of assay: cell-based. In outline: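 Compounds were preincubated with Jurkat-hPD-1 cells in DMEM plus 10% fetal calf serum for 2 h at 37° C. Phycoerythrin-labeled PD-L1-Ig (20 nM final) was then added for 1 hour. Cells were fixed in 4% paraformaldehyde with Hoechst 33342, and bound fluorescence was quantified by high-content imaging.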

T1 sequence (Q15116 25-288): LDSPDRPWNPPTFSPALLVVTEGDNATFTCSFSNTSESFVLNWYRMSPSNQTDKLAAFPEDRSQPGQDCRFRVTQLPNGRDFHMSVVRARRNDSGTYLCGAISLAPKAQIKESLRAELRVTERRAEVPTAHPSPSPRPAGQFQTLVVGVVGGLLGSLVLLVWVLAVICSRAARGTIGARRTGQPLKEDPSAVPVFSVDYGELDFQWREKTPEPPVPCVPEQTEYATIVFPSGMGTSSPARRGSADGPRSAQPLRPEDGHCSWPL

`CC(C)C[C@@H]1NC(=O)[C@H](CCCNC(=N)N)NC(=O)[C@@H](CC(C)C)NC(=O)[C@H](C)NC(=O)[C@H](CCCNC(=N)N)NC(=O)[C@H](Cc2ccc(-c3ccccc3)cc2)NC(=O)[C@H](C(C)C)NC(=O)[C@H](Cc2c[nH]c3ccccc23)NC(=O)[C@H](CC(=O)O)NC(=O)[C@H](Cc2ccc(O)cc2)NC(=O)[C@H](CC(N)=O)NC(=O)CSC[C@@H](C(=O)N[C@@H](C)C(N)=O)NC(=O)[C@H]([C@@H](C)O)NC(=O)[C@H](C(C)C)NC1=O` [Compound 1006] ({CH2CO}-NYDWV[Bip]RA[dL]RLVTCA-NH2; thioether N-14): the pIC50 was 7.01.

In the case of `CC(C)C[C@H]1NC(=O)[C@H](CCCN)NC(=O)[C@H](CCCNC(N)=O)NC(=O)[C@H](Cc2ccc(-c3ccccc3)cc2)NC(=O)[C@H](C(C)C)NC(=O)[C@H](Cc2c[nH]c3ccccc23)NC(=O)[C@H](CC(=O)O)NC(=O)[C@H](CCC(=O)O)NC(=O)[C@H](CN)NC(=O)CSC[C@@H](C(=O)N[C@@H](C)C(N)=O)NC(=O)[C@H]([C@@H](C)O)NC(=O)[C@H](C(C)C)NC(=O)[C@H](CC2CCCCC2)NC(=O)[C@H](CCN)NC1=O` [Compound 2121] ({CH2CO}-[Dap]EDWV[Bip][Cit][Orn][dL][Dab][Cha]VTCA-NH2; thioether N-14), the negative-log IC50 (pIC50) was 6.63.

Consider `CCC(C)[C@@H]1NC(=O)[C@H](Cc2ccc(-c3ccccc3)cc2)NC(=O)[C@H](CC(C)C)NC(=O)[C@H](Cc2c[nH]c3ccccc23)NC(=O)[C@H](CC(=O)O)NC(=O)[C@H](Cc2ccc(OCC(=O)O)cc2)NC(=O)[C@H](Cc2ccc(OCC(=O)O)cc2)NC(=O)CSC[C@@H](C(=O)N[C@@H](CC(N)=O)C(=O)O)NC(=O)[C@H](CO)NC(=O)[C@H](C(C)C)NC(=O)[C@H](CC(C)C)NC(=O)[C@H](CCN)NC(=O)[C@@H](CC(C)C)NC(=O)[C@H](CCCN)NC1=O` (stereo partly drawn) [Compound 2576] ({CH2CO}-Y(Carboxymethyl)Y(Carboxymethyl)DWL[Bip][Ile(3ξ)][Orn][dL][Dab]LVSCN-OH; thioether N-14), for which the pIC50 was 7.91.

With `Cc1cccc(C[C@@H]2NC(=O)[C@H](CC(=O)O)NC(=O)[C@H](Cc3ccc(OCC(=O)O)cc3)NC(=O)[C@H](Cc3ccncc3)NC(=O)CSC[C@@H](C(=O)NC3(C(N)=O)CC3)NC(=O)[C@H](CO)NC(=O)[C@H](C(C)C)NC(=O)[C@H](CC3CCCCC3)NC(=O)[C@H](CCN)NC(=O)[C@@H](CC(C)C)NC(=O)[C@H](CCCN)NC(=O)[C@H](Cc3ccc(OCC(=O)O)cc3)NC(=O)[C@H](Cc3ccc(-c4ccccc4)cc3)NC(=O)[C@H](Cc3ccc(OCC(=O)O)cc3)NC2=O)c1` [Compound 2064] ({CH2CO}-[4Pal]Y(Carboxymethyl)D[Phe(3-Me)]Y(Carboxymethyl)[Bip]Y(Carboxymethyl)[Orn][dL][Dab][Cha]VSC[Ac3c]-NH2; thioether N-14), the pIC50 is 7.93.

Regarding `Cc1ccc(C[C@@H]2NC(=O)[C@H](CN)NC(=O)CSC[C@@H](C(=O)N[C@@H](C)C(N)=O)NC(=O)[C@H]([C@@H](C)O)NC(=O)[C@H](C(C)C)NC(=O)[C@H](CC3CCCCC3)NC(=O)[C@H](CCN)NC(=O)[C@@H](CC(C)C)NC(=O)[C@H](CCCN)NC(=O)[C@H](CCCNC(N)=O)NC(=O)[C@H](Cc3ccc(-c4ccccc4)cc3)NC(=O)[C@H](C(C)C)NC(=O)[C@H](Cc3c[nH]c4ccccc34)NC(=O)[C@H](CC(=O)O)NC2=O)cc1` [Compound 2108] ({CH2CO}-[Dap][Phe(4-Me)]DWV[Bip][Cit][Orn][dL][Dab][Cha]VTCA-NH2; thioether N-14), the pIC50 was 7.70.

`CC(C)C[C@H]1NC(=O)[C@H](CCCN)NC(=O)[C@H](CCCNC(N)=O)NC(=O)[C@H](Cc2ccc(-c3ccccc3)cc2)NC(=O)[C@H](C(C)C)NC(=O)[C@H](Cc2c[nH]c3ccccc23)NC(=O)[C@H](CC(=O)O)NC(=O)[C@H](Cc2cncc3ccccc23)NC(=O)[C@H](CN)NC(=O)CSC[C@@H](C(=O)N[C@@H](C)C(N)=O)NC(=O)[C@H]([C@@H](C)O)NC(=O)[C@H](C(C)C)NC(=O)[C@H](CC2CCCCC2)NC(=O)[C@H](CCN)NC1=O` [Compound 2118] ({CH2CO}-[Dap][Ala(4-isoquinolinyl)]DWV[Bip][Cit][Orn][dL][Dab][Cha]VTCA-NH2; thioether N-14): the negative logarithm of the IC50 (pIC50) is 7.20.

Consider `Cc1ccc(C[C@@H]2NC(=O)[C@H](C(C)O)NC(=O)CSC[C@@H](C(=O)N[C@@H](CCN)C(N)=O)NC(=O)[C@H](CO)NC(=O)[C@H](C(C)(C)O)NC(=O)[C@H](CC3CCCCC3)NC(=O)[C@H](CCN)NC(=O)[C@@H](CC(C)C)NC(=O)[C@H](CCCN)NC(=O)[C@H](Cc3ccc(OCC(=O)O)cc3)NC(=O)[C@H](Cc3ccc(-c4ccccc4)cc3)NC(=O)[C@H](Cc3ccc(OCC(=O)O)cc3)NC(=O)[C@H](Cc3cccc(C)c3)NC(=O)[C@H](CC(=O)O)NC2=O)cc1` (stereo partly drawn) [Compound 2667] ({CH2CO}-[Thr(3ξ)][Phe(4-Me)]D[Phe(3-Me)]Y(Carboxymethyl)[Bip]Y(Carboxymethyl)[Orn][dL][Dab][Cha][Val(3-OH)]SC[Dab]-NH2; thioether N-14), for which the pIC50 was 7.94.

`Cc1cccc(C[C@@H]2NC(=O)[C@H](CC(=O)O)NC(=O)[C@H](Cc3ccc(O)cc3)NC(=O)[C@H](CC(N)=O)NC(=O)CSC[C@@H](C(=O)N[C@@H](C)C(N)=O)NC(=O)[C@H]([C@@H](C)O)NC(=O)[C@H](C(C)C)NC(=O)[C@H](CC3CCCCC3)NC(=O)[C@H](Cc3cnc[nH]3)NC(=O)[C@@H](CC(C)C)NC(=O)[C@H](CCCN)NC(=O)[C@H](C(C)C)NC(=O)[C@H](Cc3ccc(-c4ccccc4)cc3)NC(=O)[C@H](C(C)C)NC2=O)c1` [Compound 1586] ({CH2CO}-NYD[Phe(3-Me)]V[Bip]V[Orn][dL]H[Cha]VTCA-NH2; thioether N-14): the pIC50 is 7.75.

Turning to `CC(C)C[C@H]1NC(=O)[C@H](CCCN)NC(=O)[C@H](CCC(=O)O)NC(=O)[C@H](Cc2ccc(-c3ccccc3)cc2)NC(=O)[C@H](C(C)C)NC(=O)[C@H](Cc2c[nH]c3ccccc23)NC(=O)[C@H](CC(=O)O)NC(=O)[C@H](Cc2ccc(N)cc2)NC(=O)[C@H](CN)NC(=O)CSC[C@@H](C(=O)N[C@@H](C)C(N)=O)NC(=O)[C@H]([C@@H](C)O)NC(=O)[C@H](C(C)C)NC(=O)[C@H](CC2CCCCC2)NC(=O)[C@H](CCN)NC1=O` [Compound 2182], the pIC50 was 7.80.

With `Cc1cccc(C[C@@H]2NC(=O)[C@H](CC(=O)O)NC(=O)[C@H](Cc3ccc(OCC(=O)O)cc3)NC(=O)[C@H](CN)NC(=O)CSC[C@@H](C(=O)N[C@@H](C)C(N)=O)NC(=O)[C@H](CCCCN)NC(=O)[C@H](C(C)C)NC(=O)[C@H](CC3CCCCC3)NC(=O)[C@H](CCN)NC(=O)[C@@H](CC(C)C)NC(=O)[C@H](CCCN)NC(=O)[C@H](C(C)C)NC(=O)[C@H](Cc3ccc(-c4ccccc4)cc3)NC(=O)[C@H](C(C)C)NC2=O)c1` [Compound 1755] ({CH2CO}-[Dap]Y(Carboxymethyl)D[Phe(3-Me)]V[Bip]V[Orn][dL][Dab][Cha]VKCA-NH2; thioether N-14), the pIC50 was 8.08.

In the case of `Cc1cccc(C[C@@H]2NC(=O)[C@H](CC(=O)O)NC(=O)[C@H](Cc3ccc(C(=O)O)cc3)NC(=O)[C@H](Cc3ccncc3)NC(=O)CSC[C@@H](C(=O)N[C@@H](CCN)C(N)=O)NC(=O)[C@H](CO)NC(=O)[C@H](C(C)(C)O)NC(=O)[C@H](CC3CCCCC3)NC(=O)[C@H](CCN)NC(=O)[C@@H](CC(C)C)NC(=O)[C@H](CCCN)NC(=O)[C@H](Cc3ccc(OCC(=O)O)cc3)NC(=O)[C@H](Cc3ccc(-c4ccccc4)cc3)NC(=O)[C@H](Cc3ccc(C(=O)O)cc3)NC2=O)c1` [Compound 2624] ({CH2CO}-[4Pal][Phe(4-COOH)]D[Phe(3-Me)][Phe(4-COOH)][Bip]Y(Carboxymethyl)[Orn][dL][Dab][Cha][Val(3-OH)]SC[Dab]-NH2; thioether N-14), the pIC50 is 8.24.

With `CC(C)C[C@H]1NC(=O)[C@H](CCCN)NC(=O)[C@H](C(C)C)NC(=O)[C@H](Cc2ccc(-c3ccccc3)cc2)NC(=O)[C@H](C(C)C)NC(=O)[C@H](Cc2c[nH]c3ccccc23)NC(=O)[C@H](CC(=O)O)NC(=O)[C@H](Cc2ccc(OCC(=O)O)cc2)NC(=O)[C@H](CN)NC(=O)CSC[C@@H](C(=O)N[C@@H](C)C(N)=O)NC(=O)[C@H]([C@@H](C)O)NC(=O)[C@H](C(C)C)NC(=O)[C@H](CC2CCCCC2)NC(=O)[C@H](CCC(=O)O)NC1=O` [Compound 1522] ({CH2CO}-[Dap]Y(Carboxymethyl)DWV[Bip]V[Orn][dL]E[Cha]VTCA-NH2; thioether N-14), the pIC50 is 7.63.

With `C#CC[C@H](NC(=O)[C@H](CCN)NC(=O)[C@@H]1CSCC(=O)N[C@@H](CN)C(=O)N[C@@H](Cc2ccc(OCC(=O)O)cc2)C(=O)N[C@@H](CC(=O)O)C(=O)N[C@@H](Cc2cccc(C)c2)C(=O)N[C@@H](Cc2ccc(C(=O)O)cc2)C(=O)N[C@@H](Cc2ccc(-c3ccccc3)cc2)C(=O)N[C@@H](Cc2ccc(C(=O)O)cc2)C(=O)N[C@@H](CCCN)C(=O)N[C@H](CC(C)C)C(=O)N[C@@H](CCN)C(=O)N[C@@H](CC2CCCCC2)C(=O)N[C@@H](C(C)C)C(=O)N[C@@H](CCC(=O)O)C(=O)N1)C(=O)O` [Compound 1825] ({CH2CO}-[Dap]Y(Carboxymethyl)D[Phe(3-Me)][Phe(4-COOH)][Bip][Phe(4-COOH)][Orn][dL][Dab][Cha]VEC[Dab][Pra]-OH; thioether N-14), the pIC50 was 6.74.

Turning to `Cc1ccccc1C[C@@H]1NC(=O)[C@H](CC(=O)O)NC(=O)[C@H](Cc2ccc(OCC(=O)O)cc2)NC(=O)[C@H](CN)NC(=O)CSC[C@@H](C(=O)N[C@@H](C)C(N)=O)NC(=O)[C@H]([C@@H](C)O)NC(=O)[C@H](C(C)C)NC(=O)[C@H](CC2CCCCC2)NC(=O)[C@H](CCN)NC(=O)[C@@H](CC(C)C)NC(=O)[C@H](CCCN)NC(=O)[C@H](CCC(=O)O)NC(=O)[C@H](Cc2ccc(-c3ccccc3)cc2)NC(=O)[C@H](C(C)C)NC1=O` [Compound 2151], the pIC50 was 7.92.
